Results as given in PubChem BioAssay (NCI).
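Growth conditions: 96-well plates. Treatment: test compound, 48 hours, 5 concentrations. Analysis: linear interpolation between bracketing concentrations; unreached endpoints set to highest concentration. The concentration for full growth arrest is given as TGI.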

Tests used:
Assay in all cases: inhibition of tumour cell growth, NCI panel, 48 h
NCI-H226 lung = system: NCI-H226 lung
LXFL 529 NSCLC = system: LXFL 529 NSCLC
OVCAR-3 ovarian = system: OVCAR-3 ovarian
HOP-62 NSCLC = system: HOP-62 NSCLC
DMS 114 small cell lung = system: DMS 114 small cell lung
UACC-257 melanoma = system: UACC-257 melanoma
SF-539 CNS = system: SF-539 CNS
HCT-116 colon = system: HCT-116 colon
NCI-H522 lung = system: NCI-H522 lung
MDA-MB-435 = system: MDA-MB-435

SMILES	TGI (NCI-H226 lung)	TGI (LXFL 529 NSCLC)	TGI (OVCAR-3 ovarian)	TGI (HOP-62 NSCLC)	TGI (DMS 114 small cell lung)	TGI (UACC-257 melanoma)	TGI (SF-539 CNS)	TGI (HCT-116 colon)	TGI (NCI-H522 lung)	TGI (MDA-MB-435)
COC1(C)C(=O)N2C1N(C(=O)OCc1ccccc1)CC2(C)C (stereo unspecified)	> 100 µM	> 100 µM	> 100 µM	> 100 µM	> 100 µM	> 100 µM	> 100 µM	> 100 µM	–	–
O=C(CCc1nc(=S)[nH][nH]1)Nc1cccc(C(F)(F)F)c1	> 100 µM	> 100 µM	> 100 µM	> 100 µM	> 100 µM	> 100 µM	> 100 µM	> 100 µM	> 100 µM	–
CC1=NN(C(=O)c2ccc(Cl)cc2)C(=O)/C1=C/c1ccc(Cl)cc1	–	> 100 µM	> 100 µM	> 100 µM	> 100 µM	> 100 µM	> 100 µM	> 100 µM	> 100 µM	–
COCCOCOC(C)(C)[C@H](CCOC(C)=O)O[Si](c1ccccc1)(c1ccccc1)C(C)(C)C	19.8 µM	> 100 µM	53.6 µM	66.7 µM	55.4 µM	31.1 µM	–	> 100 µM	29.4 µM	–
O=NN(CCCl)C(=O)NC1CCC(=O)NC1=O (stereo unspecified)	583 µM	–	> 1160 µM	505 µM	814 µM	975 µM	309 µM	605 µM	485 µM	442 µM
Cc1ccc(NC(=O)CC2SC(N)=NC2=O)cc1C (stereo unspecified)	> 100 µM	> 100 µM	> 100 µM	> 100 µM	–	> 100 µM	> 100 µM	> 100 µM	> 100 µM	–
CN1CCc2c1nc(-c1cccnc1)c1c2N(C)CC1	–	> 100 µM	> 100 µM	> 100 µM	> 100 µM	> 100 µM	> 100 µM	> 100 µM	–	–
Cc1nc2c(sc(=S)n2-c2ccccc2)c2nc3ccccc3n12	> 100 µM	> 100 µM	> 100 µM	> 100 µM	> 100 µM	> 100 µM	> 100 µM	–	> 100 µM	–
COc1ccc(Cc2nc3ccccc3s2)cc1OC	45.7 µM	31.4 µM	31 µM	93.5 µM	29.9 µM	32.9 µM	31.2 µM	29.2 µM	32.2 µM	–
NC(=O)C12CC3CC(CC(Br)(C3)C1)C2	–	> 100 µM	> 100 µM	> 100 µM	> 100 µM	> 100 µM	> 100 µM	> 100 µM	> 100 µM	–
COc1cc(/C=C\c2ccncc2)cc(OC)c1OC	> 100 µM	> 100 µM	> 100 µM	> 100 µM	> 100 µM	> 100 µM	> 100 µM	> 100 µM	> 100 µM	–
CC(=O)NNc1nc(C)c(C(=O)/C=C/c2ccc(/C=C/C(=O)c3sc(NNC(C)=O)nc3C)cc2)s1	> 100 µM	> 100 µM	> 100 µM	> 100 µM	> 100 µM	> 100 µM	> 100 µM	> 100 µM	> 100 µM	–
Nc1ccc(C(=O)N/C(=C\c2cccc([N+](=O)[O-])c2)c2nc3ccc(Cl)cc3[nH]2)cc1	–	> 100 µM	> 100 µM	–	> 100 µM	–	> 100 µM	–	> 100 µM	–
COC/N=C(/N)NC#N	> 100 µM	> 100 µM	> 100 µM	> 100 µM	37.6 µM	> 100 µM	> 100 µM	> 100 µM	> 100 µM	–
Nc1ncnc2c1nnn2C1C=C(CO)C(O)C1O (stereo unspecified)	> 100 µM	> 100 µM	> 100 µM	> 100 µM	> 86.2 µM	> 100 µM	> 100 µM	> 53.3 µM	> 100 µM	–
O=C(COc1ccc(Cl)cc1)N1CCN(C(=O)COc2ccc(Cl)cc2)c2ccccc21	–	> 100 µM	> 100 µM	> 100 µM	> 100 µM	> 100 µM	> 100 µM	> 100 µM	> 100 µM	–
